Data set [1] relates to human mast cell line (HMC-1). The experiment in a line: Gene expression by quantitative real-time PCR in mast cells. The format is cell-based. To be noted: 1 hour. On the procedure:
Gene-expression profiles for Th17 related cytokines were analysed in HMC-1 treated with 10 g/L or 100 g/L of SurgihoneyRO for 5 minutes, 1 hour and 2 hours using quantitative real-time PCR. The fold change was calculated based on normalisation to the expression of the endogenous R-actin housekeeping gene. […] The dotted line for y=0 represents the untreated control group to which gene expression in the treatment groups were normalised and compared using an unpaired two tailed T test. *p≤0.05, ** […], *** p≤0.001, **** p≤0.0001;
A human nasal epithelial cell line was used to investigate the immediate effect of SurgihoneyRO (also known as Surgihoney) on the integrity and function of the epithelium. In addition, a human mast cell line was used as a representative leukocyte to investigate immunological responses to SurgihoneyRO. Mast cells were selected because of their function as sentinel cells, being located just underneath the epithelium in tissues.
We then studied the response of the mast cell line (HMC-1) to SurgihoneyRO treatment.
In this case, we treated cells with an appropriate concentration range of pure hydrogen peroxide, from 0-400 uM.
(In general: Real-time PCR tracks product formation cycle by cycle.)

Data set [2] concerns human nasal epithelial cell line. The experiment in a line: Gene expression by quantitative real-time PCR in nasal epithelial cells. Format: cell-based. The conditions noted are these: 1 hour. As for the experimental part:
The fold change was calculated based on normalisation to the expression of the endogenous R-actin housekeeping gene. […] The dotted line for y=0 represents the untreated control group to which gene expression in the treatment groups were normalised and compared using an unpaired two tailed T test. *p≤0.05, ** […], *** p≤0.001, **** p≤0.0001; A human nasal epithelial cell line was used to investigate the immediate effect of SurgihoneyRO (also known as Surgihoney) on the integrity and function of the epithelium. In addition, a human mast cell line was used as a representative leukocyte to investigate immunological responses to SurgihoneyRO. Mast cells were selected because of their function as sentinel cells, being located just underneath the epithelium in tissues. Mast cells have close contact to the external environment, for example being found in the nasal mucosa, where they are ideally placed to participate in the early recognition of pathogens—by acting as immune effectors and modulatory cells with an essential role in linking innate and adaptive immunity in the host's defence against pathogens such as bacteria. […] In this case, we treated cells with an appropriate concentration range of pure hydrogen peroxide, from 0-400 uM.

The conditions of data set [3]: 20° C. and 1 atm; cited from earlier work.
The subject of data set [4] is 48 h in vitro NTHi biofilms. Kind of data set: NTHi biofilm assay (cfu enumeration). The format is cell-based, non-typeable Haemophilus influenza. The conditions noted are these: 300/60 μg·ml; 2 hours. As for the experimental part: Bacterial strains used in this study were isolated from nasopharyngeal swabs of children aged 4 years. NTHi was sub-cultured from frozen stocks onto Colombia agar with chocolated horse blood (Oxoid, UK) and incubated for 18 h at 37° C. and 5% CO2, following which colonies were resuspended in Brain Heart Infusion (BHI) broth supplemented with 10 μg/ml Hemin and 2 μg/ml NAD, and grown to mid-exponential phase for experiments. Pseudomonas aeruginosa PA01 and a clinical methicillin resistant Staphylococcus aureus isolate were subcultured onto Colombia blood agar plates (Oxoid, UK) and grown in non-supplemented BHI. […]
Mid-exponential planktonic cultures were used to inoculate individual wells of untreated 6-well polystyrene plates (˜1.0×10^8 planktonic bacteria per well; Corning Incorporated, USA). Cultures were incubated at 37° C. and 5% CO2 for 48 h, replacing spent media with fresh supplemented BHI (NTHi) at 24 h. Prior to treatment spent media was removed and biofilms washed twice with Hanks' balanced salt solution (HBSS; Gibco, UK). Biofilms were treated with SurgihoneyRO™ or Acacia (both prepared in HBSS) at final concentrations of 7 to 213 g/L. To assess the effect of pH biofilms were treated with HBSS adjusted to pH6.3 (the pH of 71 g/L SurgihoneyRO™ in HBSS). For adjuvant assays biofilms were treated with 300 μg/mL amoxicillin and 60 μg/mL clavulanic acid (Co-amoxiclav). […]

Turning to `OO` [hydrogen peroxide], in data set [1] (40 μM), the “IL22 expression, fold change” value worked out at 0.60 fold and the “IL23R expression, fold change” value was 0.47 fold. For the same molecule, in data set [1] (200 μM), the “IL22 expression, fold change” value is recorded as 1.25 fold; the “IL23R expression, fold change” value is 0.58 fold; the “MMP7 expression, fold increase” value turned out to be 3.07 fold. In data set [1] (400 μM), the “IL22 expression, fold change” value came to 1.81 fold; the “IL23R expression, fold change” value was found to be 1.05 fold; the “MMP7 expression, fold increase” value came out at 3.31 fold; the “RORγC expression, mean increase” value was found to be 2.83 fold. In addition, in data set [2] (40 μM), the “IL22 expression, fold change” value is reported as 0.90 fold and the “IL23R expression, fold change” value was determined as 0.45 fold. In addition, in data set [2] (200 μM), the “IL22 expression, fold change” value was determined as 1.42 fold and the “IL23R expression, fold change” value is 1.20 fold. In addition, in data set [2] (400 μM), the “GATA3 expression, fold increase” value was determined as 0.92 fold; the “IL10 expression, fold change” value is 4.63 fold; the “IL22 expression, fold change” value was found to be 4.55 fold; the “IL23R expression, fold change” value was found to be 1.87 fold. Also, in data set [2] (400 μM), the “MMP9 expression, fold change” value was 1.47 fold and the “RORγC expression, mean increase” value is 14.57 fold.
Take `O=C(CO)[C@@H](O)[C@H](O)[C@H](O)CO` [Fructose]: the solubility entry in data set [3] was “about 375 g/100 g water”.
For co-amoxiclav, in data set [4], the “effect on biofilm viability” value is listed as “no effect”.

Values taken from patent US20200030347A1, “ANTIMICROBIAL COMPOSITIONS” (Matoke Holdings Limited, priority 2016, published 2020).
